Patent publication US9255093B2, “Polycyclic HERG activators” (NOVARTIS AG, priority 2014, dated 2016)
Marks after values point to notes of the source that are not given here.

biological target: hERG (human ether-a-go-go-related gene) potassium channel (Homo sapiens, UniProt Q12809); test: QPatch automated patch-clamp hERG activator 4-concentration EC50 assay; conditions: increase of hERG tail current amplitude at 7 second (TL7); 3.3 uM (footnote *); hERG stably expressed in CHO cells
Sequence (Q12809 whole entry): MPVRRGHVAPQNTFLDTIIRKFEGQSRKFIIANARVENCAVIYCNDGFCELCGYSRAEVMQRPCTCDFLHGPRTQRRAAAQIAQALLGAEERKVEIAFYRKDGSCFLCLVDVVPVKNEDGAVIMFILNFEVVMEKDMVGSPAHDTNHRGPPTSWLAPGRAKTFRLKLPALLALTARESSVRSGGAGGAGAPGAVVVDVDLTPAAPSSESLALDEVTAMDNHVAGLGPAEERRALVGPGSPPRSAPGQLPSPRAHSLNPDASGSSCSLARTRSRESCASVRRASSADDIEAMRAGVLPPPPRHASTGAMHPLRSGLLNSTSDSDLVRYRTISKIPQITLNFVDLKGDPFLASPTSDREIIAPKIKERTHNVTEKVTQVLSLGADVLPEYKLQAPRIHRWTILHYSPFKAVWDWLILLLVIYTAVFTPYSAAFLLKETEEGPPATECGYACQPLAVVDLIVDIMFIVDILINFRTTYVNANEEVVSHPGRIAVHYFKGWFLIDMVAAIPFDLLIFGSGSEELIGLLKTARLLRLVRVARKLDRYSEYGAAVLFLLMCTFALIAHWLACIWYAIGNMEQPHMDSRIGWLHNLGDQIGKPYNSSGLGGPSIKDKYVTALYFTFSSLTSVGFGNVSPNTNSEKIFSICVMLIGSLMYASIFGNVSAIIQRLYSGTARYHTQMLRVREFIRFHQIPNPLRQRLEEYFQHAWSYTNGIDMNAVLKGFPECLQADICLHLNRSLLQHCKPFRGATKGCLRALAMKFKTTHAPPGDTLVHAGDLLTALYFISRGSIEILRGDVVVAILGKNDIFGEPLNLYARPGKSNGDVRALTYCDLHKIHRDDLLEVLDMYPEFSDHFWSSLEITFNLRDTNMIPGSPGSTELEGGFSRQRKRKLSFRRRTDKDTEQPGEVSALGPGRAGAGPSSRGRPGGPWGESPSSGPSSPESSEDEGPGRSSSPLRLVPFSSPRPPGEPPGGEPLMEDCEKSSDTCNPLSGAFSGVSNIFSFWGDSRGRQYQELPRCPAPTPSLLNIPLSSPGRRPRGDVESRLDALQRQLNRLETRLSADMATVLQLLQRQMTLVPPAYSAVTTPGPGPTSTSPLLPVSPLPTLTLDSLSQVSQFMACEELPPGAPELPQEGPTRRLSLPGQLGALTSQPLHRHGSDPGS
Source text: A patch-clamp assay on the QPatch© automated patch clamp system was employed to assesses whether compounds functionally enhance the cardiac delayed rectifier hERG (human ether-a-go-go-related gene) potassium channel. The assay measures electric the current passing through hERG channels that are heterologously expressed in a stable Chinese hamster ovary (CHO) cell line. Channels are opened by a hERG-specific voltage protocol and the compound effect is directly characterized by the activation of the hERG current. EC50 values are obtained from fitting 4-concentration dose response curves (1.1, 3.3, 10 & 30 uM) in triplicates at 4 different sections of the voltage protocol (steady state current amplitude at +10 mV, at +30 mV, peak tail current amplitude and tail current amplitude at 7 second).

Compound	% change@TL7 (*@3.3 uM)
COc1c(F)cc(NCc2ccc3cc(-c4nn[nH]n4)oc3c2)cc1Br [Example 1]	166* %
CCOc1c(F)cc(NCc2ccc3cc(-c4nn[nH]n4)oc3c2)cc1Br [Example 2]	126* %
FC(F)(F)c1ccc(NCc2ccc3cc(-c4nn[nH]n4)oc3c2)cc1Br [Example 3]	121* %
FC(F)Oc1c(Br)cc(NCc2ccc3cc(-c4nn[nH]n4)oc3c2)cc1Br [Example 4]	155* %

same assay, conditions: increase of hERG tail current amplitude at 7 second (TL7); 10 uM; hERG stably expressed in CHO cells

Compound	% change@TL7@10 uM [%]
CCOc1c(Cl)cc(NCc2cc3oc(-c4nnn[nH]4)cc3cc2Cl)cc1Cl [Example 5]	146
FC(F)(F)Oc1ccc(NCc2cc3oc(-c4nnn[nH]4)cc3cc2Cl)cc1C(F)(F)F [Example 6]	264
FC(F)(F)COc1ccc(NCc2cc3oc(-c4nnn[nH]4)cc3cc2Cl)cc1Cl [Example 8]	128
Fc1ccc(NCc2cc3oc(-c4nnn[nH]4)cc3cc2Cl)cc1OC(F)(F)F [Example 9]	78
CCOc1ccc(NCc2cc3oc(-c4nnn[nH]4)cc3cc2Cl)cc1C(F)(F)F [Example 10]	285
C=C(C)c1cc(NCc2ccc3cc(-c4nn[nH]n4)oc3c2)ccc1OC(F)(F)F [Example 11]	129
CCCc1ccc(NCc2cc3oc(-c4nnn[nH]4)cc3cc2Cl)cc1Cl [Example 12]	85
FC(F)(F)Oc1cc(NCc2cc3oc(-c4nnn[nH]4)cc3cc2Cl)ccc1Cl [Example 13]	39
FC(F)(F)c1ccc(NCc2cc3oc(-c4nnn[nH]4)cc3cc2Cl)cc1C(F)(F)F [Example 14]	196
Clc1cc2cc(-c3nnn[nH]3)oc2cc1CNc1cc(Cl)c(Cl)c(Cl)c1 [Example 15]	162
CCCc1ccc(NCc2ccc3cc(-c4nnn[nH]4)oc3c2)cc1C(F)(F)F [Example 16]	521
FC(F)Oc1ccc(NCc2ccc3cc(-c4nn[nH]n4)oc3c2)cc1Cl [Example 17]	477
CC(C)Oc1ccc(NCc2cc3oc(-c4nnn[nH]4)cc3cc2Cl)cc1C(F)(F)F [Example 18]	409
Clc1cc(NCc2ccc3cc(-c4nn[nH]n4)oc3c2)cc(Cl)c1Cl [Example 19]	394
FC(F)(F)Sc1ccc(NCc2ccc3cc(-c4nn[nH]n4)oc3c2)cc1Cl [Example 20]	340
Cc1cc(NCc2ccc3cc(-c4nn[nH]n4)oc3c2)ccc1OC(F)(F)F [Example 21]	333
FC(F)(F)COc1ccc(NCc2cc3oc(-c4nnn[nH]4)cc3cc2Cl)cc1C(F)(F)F [Example 22]	328
FC(F)(F)Oc1ccc(NCc2ccc3cc(-c4nn[nH]n4)oc3c2)cc1C(F)(F)F [Example 23]	290
FC(F)Oc1ccc(NCc2cc3oc(-c4nnn[nH]4)cc3cc2Cl)cc1C(F)(F)F [Example 25]	269
CSc1ccc(NCc2ccc3cc(-c4nn[nH]n4)oc3c2)cc1C(F)(F)F [Example 26]	267
FC(F)(F)COc1ccc(NCc2ccc3cc(-c4nn[nH]n4)oc3c2)cc1C(F)(F)F [Example 27]	261
CSc1cccc(NCc2ccc3cc(-c4nn[nH]n4)oc3c2)c1 [Example 28]	260
N#CCOc1ccc(NCc2cc3oc(-c4nnn[nH]4)cc3cc2Cl)cc1C(F)(F)F [Example 29]	258
O=C(c1ccc(NCc2ccc3cc(-c4nnn[nH]4)oc3c2)cc1)C(F)(F)F [Example 30]	228
CCCc1ccc(NCc2cc3oc(-c4nnn[nH]4)cc3cc2Cl)cc1C(F)(F)F [Example 31]	218

Compound	% change@TL7@10 uM [%]
Clc1ccc(NCc2ccc3cc(-c4nn[nH]n4)oc3c2)cc1 [Example 33]	192
CCCc1ccc(NCc2cc3oc(-c4nnn[nH]4)cc3cc2Cl)cc1Br [Example 34]	191
Fc1cc(NCc2ccc3cc(-c4nn[nH]n4)oc3c2)cc(Br)c1F [Example 35]	180
FC(F)(F)Oc1ccc(NCc2cc3oc(-c4nnn[nH]4)cc3cc2Cl)cc1Br [Example 36]	174
FC(F)(F)Oc1ccc(NCc2ccc3cc(-c4nn[nH]n4)oc3c2)cc1Br [Example 37, N-((2-(2H-tetrazol-5-yl)benzofuran-6-yl)methyl)-3-bromo-4-(trifluoromethoxy)aniline]	170
FC(F)(F)Oc1ccc(NCc2ccc3c(C(F)(F)F)c(-c4nnn[nH]4)oc3c2)cc1C(F)(F)F [Example 38]	164
FC(F)(F)c1cc(NCc2ccc3cc(-c4nn[nH]n4)oc3c2)ccc1Br [Example 39]	164
FC1(F)Oc2ccc(NCc3ccc4cc(-c5nn[nH]n5)oc4c3)cc2O1 [Example 40]	161
FC(F)(F)Oc1ccc(NCc2ccc3cc(-c4nn[nH]n4)oc3c2)cc1OC(F)(F)F [Example 41]	160
CCCc1ccc(NCc2ccc3cc(-c4nnn[nH]4)oc3c2)cc1Br [Example 42]	159
Fc1cc(NCc2ccc3cc(-c4nn[nH]n4)oc3c2)ccc1OC(F)(F)F [Example 43]	148
FC(F)(F)COc1ccc(NCc2ccc3cc(-c4nn[nH]n4)oc3c2)cc1Cl [Example 44]	146
Clc1cc(NNCc2ccc3cc(-c4nn[nH]n4)oc3c2)cc(Cl)c1Cl [Example 45]	145
FC(F)(F)Oc1ccc(NCc2ccc3cc(-c4nn[nH]n4)oc3c2)cc1Cl [Example 46]	139
FC(F)(F)Oc1ccc(NCc2ccc3c(C(F)(F)F)c(-c4nnn[nH]4)oc3c2)cc1Br [Example 47]	131
FC(F)(F)Oc1cc(NCc2ccc3cc(-c4nn[nH]n4)oc3c2)ccc1Br [Example 48]	123
CCOc1c(Cl)cc(NCc2ccc3c(C(F)(F)F)c(-c4nnn[nH]4)oc3c2)cc1Cl [Example 49]	106
CCCc1ccc(NCc2ccc3c(C)c(-c4nnn[nH]4)oc3c2)cc1C(F)(F)F [Example 51]	99
FC(F)(F)c1ccc(NCc2ccc3cc(-c4nn[nH]n4)oc3c2)cc1C(F)(F)F [Example 52]	95
Cc1c(-c2nnn[nH]2)oc2cc(CNc3ccc(OC(F)(F)F)c(Br)c3)ccc12 [Example 53]	95
FC(F)(F)Oc1ccc(NCc2ccc3c(C(F)(F)F)c(-c4nnn[nH]4)oc3c2)cc1Cl [Example 54]	94
CCCc1ccc(NCc2ccc3c(C(F)(F)F)c(-c4nnn[nH]4)oc3c2)cc1C(F)(F)F [Example 55]	90
CCOc1ccc(NCc2ccc3c(C(F)(F)F)c(-c4nnn[nH]4)oc3c2)cc1C(F)(F)F [Example 56]	88
CC(C)Oc1ccc(NCc2ccc3c(C(F)(F)F)c(-c4nnn[nH]4)oc3c2)cc1C(F)(F)F [Example 57]	76
Fc1ccc(NCc2ccc3cc(-c4nn[nH]n4)oc3c2)cc1CC(F)(F)F [Example 58]	71

Compound	% change@TL7@10 uM [%]
Brc1cccc(NCc2ccc3cc(-c4nn[nH]n4)oc3c2)c1 [Example 59]	61
FC(F)Oc1ccc(NCc2ccc3c(C(F)(F)F)c(-c4nnn[nH]4)oc3c2)cc1C(F)(F)F [Example 60]	58
FC(F)(F)c1ccc(NCc2ccc3c(C(F)(F)F)c(-c4nnn[nH]4)oc3c2)cc1Cl [Example 61]	47
COc1cc(NCc2ccc3cc(-c4nn[nH]n4)oc3c2)cc(OC)c1OC [Example 62]	43
FC(F)(F)Oc1ccc(NCc2ccc3cc(-c4nn[nH]n4)oc3c2)cc1 [Example 63]	34
FC(F)(F)Sc1ccc(NCc2ccc3oc(-c4nnn[nH]4)cc3c2)cc1Cl [Example 64]	348
FC(F)(F)Oc1ccc(NCc2ccc3oc(-c4nnn[nH]4)cc3c2)cc1Cl [Example 65]	284
CCCc1ccc(NCc2ccc3oc(-c4nnn[nH]4)cc3c2)cc1C(F)(F)F [Example 66]	261
FC1(F)Oc2ccc(NCc3ccc4oc(-c5nnn[nH]5)cc4c3)cc2O1 [Example 67]	247
CCCc1cc(NCc2ccc3oc(-c4nnn[nH]4)cc3c2)ccc1Cl [Example 68]	224
CCCc1c(C)cc(NCc2ccc3oc(-c4nnn[nH]4)cc3c2)cc1Cl [Example 69]	221
Cc1c(-c2nnn[nH]2)oc2ccc(CNc3ccc(SC(F)(F)F)c(Cl)c3)cc12 [Example 70]	200
CCCc1ccc(NCc2ccc3oc(-c4nnn[nH]4)cc3c2)cc1Cl [Example 71]	193
Fc1ccc(NCc2ccc3oc(-c4nnn[nH]4)cc3c2)cc1OC(F)(F)F [Example 72]	176
CC(Nc1cc(Cl)c(Cl)c(Cl)c1)c1ccc2oc(-c3nnn[nH]3)cc2c1 (centres unmarked) [Example 73]	132
CC(Nc1ccc(SC(F)(F)F)c(Cl)c1)c1ccc2oc(-c3nnn[nH]3)cc2c1 (centres unmarked) [Example 74]	124
FC(F)(F)Oc1cc(Cl)cc(NCc2ccc3oc(-c4nnn[nH]4)cc3c2)c1 [Example 75]	123
CCCc1ccc(NCc2ccc3oc(-c4nnn[nH]4)cc3c2)cc1OC(F)(F)F [Example 76]	120
CC(Nc1ccc(OC(F)(F)F)c(Cl)c1)c1ccc2oc(-c3nnn[nH]3)cc2c1 (centres unmarked) [Example 77]	118
CCc1ccc(NCc2ccc3oc(-c4nnn[nH]4)cc3c2)cc1C(F)(F)F [Example 78]	108
CCCc1ccc(NCc2ccc3oc(-c4nnn[nH]4)cc3c2)cc1F [Example 79]	101
CCCc1ccc(NCc2ccc3oc(-c4nnn[nH]4)cc3c2)cc1C [Example 80]	83
CCCc1ccc(NC(C)c2ccc3oc(-c4nnn[nH]4)cc3c2)cc1C(F)(F)F (centres unmarked) [Example 81]	74
